Laboratory results published in article PMC8355244, “A fragment-based approach identifies an allosteric pocket that impacts malate dehydrogenase activity” (Communications Biology, 2021).
Values joined by “and” are separate entries in the source; they are usually repeats but may differ in a detail not shown here. Identical values can stand only once. Like-named read-outs stand apart in the source and are kept apart here.

How the values were obtained:
[1] = tested on: HsMDH1; parameters: method as in earlier work; settings: Supplementary Table 1; ref 10.1021/acs.jmedchem.7b01231; cited from earlier work
[2] = tested on: HsMDH2; settings: Supplementary Table 1, cited from earlier work
[3] = tested on: MDH; settings: cited from earlier work
[4] = target: T1, PfMDH (Plasmodium falciparum, UniProt Q6VVP7); settings: Supplementary Table 2; ref 10.1021/jm070336k; cited from earlier work
T1 construct: The full-length WT PfMDH gene was cloned into pETM-13; made in house; host or cells: E. coli Rosetta 2 (DE3) pLysS

[5] = target: T1, PfMDH; experiment: Dynamic light scattering (DLS), aggregation; settings: PfMDH samples incubated with compound
Method: Measurements were performed on Litesizer 500 (Anton Paar). Samples were incubated with the highest concentrations of compounds for 2 h at room temperature. Prior to measurements, samples were spun for 5 min at 16,000 rpm (Eppendorf Centrifuge 5415R) to remove aggregates.

[6] = target: T1, PfMDH; experiment: Small-angle X-ray scattering (SAXS) of PfMDH with compounds; settings: 1 mM compound; for radius of gyration Rg of PfMDH in complex: apo PfMDH 33.78 ± 5.51
Method: X-ray scattering experiments were performed using the laboratory SAXS system Xeuss 2.0 (XENOCS, Grenoble, France) equipped with a MetalJet D2 microfocus X-ray generator (0.134 nm wavelength). The protein solution at a concentration of 2.49 mg ml^−1 was mixed with 4PA derivatives at a concentration of 1 mM, incubated for 1 h at room temperature, and spun at 16,000 rpm (Eppendorf Centrifuge 5415R) to remove any potential aggregates prior to injection into the low-noise liquid sample cell. SAXS data were collected in 3–4 subsequent 10 min long frames using a Pilatus3R 1 M hybrid photon counting detector (Dectris, Switzerland). Data reduction and buffer subtraction procedures were performed using the Foxtrot package. Scattering profiles were assessed for radiation-damaged and averaged. Structural parameters were calculated in Primus from the ATSAS package. The distance distribution function was calculated using GNOM[58].

[7] = Precipitation / turbidity of compound in assay buffer (600 nm); assay type: physicochemical; settings: activity screening buffer, 500 µM
Method: 1.3 µL of derivatives of 4-phenylthiazol-2-amine in 100% DMSO were mixed with 237.7 µL of a mastermix of WT PfMDH previously incubated with NAD+. The final compound concentration used in this screening was 500 µM in the presence of 0.5% (v/v) DMSO. The microplate was sealed with silver foil for 1-h incubation at 25–35 °C. Finally, reactions in both the samples and control wells were started upon the addition of 13.0 µL of 5 mM malate). At the end of the experiments, the reaction of the plate was spectrophotometrically assayed at 600 nm in order to identify turbidity due to the low solubility of the compound. All measurements were performed in duplicate.

[8] = ref 10.1021/acs.jmedchem.7b01231

T1 sequence (Q6VVP7 entry or part of it): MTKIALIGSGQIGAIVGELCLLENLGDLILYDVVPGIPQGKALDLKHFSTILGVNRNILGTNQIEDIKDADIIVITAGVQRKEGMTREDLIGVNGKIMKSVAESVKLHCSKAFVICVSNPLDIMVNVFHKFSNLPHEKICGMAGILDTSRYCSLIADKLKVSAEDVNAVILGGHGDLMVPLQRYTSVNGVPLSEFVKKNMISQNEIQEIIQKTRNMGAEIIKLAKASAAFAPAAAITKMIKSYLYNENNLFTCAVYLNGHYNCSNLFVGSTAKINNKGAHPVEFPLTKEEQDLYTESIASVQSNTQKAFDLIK

COC(=O)c1cccc(NC(=O)CCOc2ccc(C(C)(C)CC(C)(C)C)cc2)c1 [Inhibitor 16c]
IC50 [1]: 1.07 ± 0.07 µM
IC50 [2, 8]: 1.06 ± 0.03 µM

O=c1c(O)c(-c2ccc(O)c(O)c2)oc2cc(O)cc(O)c12 [quercetin]
IC50 [3]: 6 µM

COC(=O)c1cccc(NC(=O)CCCOc2ccc(C(C)(C)CC(C)(C)C)cc2)c1 [Inhibitor 14b]
IC50 [1]: 1.18 ± 0.08 µM
IC50 [2, 8]: 1.11 ± 0.01 µM

NC(=O)C(=O)O [Oxamate]
IC50 [4]: > 2000 µM

Nc1nc(-c2ccc([N+](=O)[O-])cc2)cs1 [compound 2a]
aggregation in DLS [5]: no aggregation in DLS
radius of gyration Rg of PfMDH in complex [6]: 33.78 ± 0.83 Å and 33.8 Å
precipitation of compound in the buffer [7]: precipitation of compound was observed

COc1cc(CCOc2cc(O)c3c(=O)cc(C(=O)O)oc3c2)ccc1NC(=O)C(=O)O [Inhibitor 4]
IC50 [4]: > 225 µM

Nc1nc(-c2ccc(Br)cc2)cs1 [compound 6a]
aggregation in DLS [5]: no aggregation in DLS
Rg from Dmax analysis ([6]; apo 33.93 ± 4): 34.52 ± 4.3 Å
Dmax ([6]; apo 104.75): 113.74 Å
MW estimate of PfMDH complex ([6]; apo 113.65): 91.175 kDa
radius of gyration Rg of PfMDH in complex [6]: 36.4 ± 3.15 Å and 36.4 Å
precipitation of compound in the buffer [7]: precipitation of compound was observed

COC(=O)c1ccc(O)c(NC(=O)CCCOc2ccc(C(C)(C)CC(C)(C)C)cc2)c1 [Inhibitor 14c]
IC50 [2, 8]: 1.11 ± 0.01 µM

O=C1Cc2c([nH]c3ccc(Br)cc23)-c2ccccc2N1Cc1ccc(Cl)c(Cl)c1 [Inhibitor 4h]
IC50 ([2]; ref 10.1016/j.ejmech.2009.10.018): 1.1 ± 0.1 µM

O=C(O)C(=O)Nc1ccc(CCOc2cc(O)c3c(=O)cc(C(=O)O)oc3c2)cc1 [Inhibitor 2]
IC50 [4]: > 241 µM

CC(=O)c1c(O)c(C)c(O)c(Cc2c(O)c3c(c(C(=O)/C=C/c4ccccc4)c2O)OC(C)(C)C=C3)c1O [rottlerin]
IC50 [3]: 0.7 µM

COc1ccc(CNC(=O)c2cc(=O)c3c(O)cc(OCCc4ccc(NC(=O)C(=O)O)c(OC)c4)cc3o2)cc1 [Inhibitor 7]
IC50 [4]: 2.66 ± 0.24 µM
